Key:
[1] = system: SCID animals; experiment: Adoptive transfer in mice (CD45RBhigh cells into SCID animals); type: in vivo; conditions: for % Inhibition: Table 6a, inhibition of the induction window between naïve and vehicle animals; for levels of pro-inflammatory cytokines in samples of colon tissue: adoptive transfer model
Procedure: On Study day 0, female Balb/C mice are terminated and spleens obtained for CD45RB^high cell isolation (Using SCID IBD cell Separation protocol). Approximately 4×10^5 cells/mL CD45RB^high cells are then injected intraperitoneally (100 μL/mouse) into female SCID animals. On study day 14, mice are weighed and randomized into treatment groups based on body weight. On Day 14, compounds are administered BID, via oral gavage, in a peanut oil vehicle at the dose levels outlined below in Tables 6a and 6b and a dose volume of 5 mL/kg. Treatment continues until study day 42, at which point the animals are necropsied 4 hours after the morning administration. The colon length and weight are recorded and used as a secondary endpoint in the study as a measurement of colon oedema. The colon is then divided into six cross-sections, four of which are used for histopathology scoring (primary endpoint) and two are homogenised for cytokine analysis. Data shown is the % inhibition of the induction window between naïve animals and vehicle animals, where higher inhibition implies closer to the non-diseased, naïve, phenotype.

[2] = system: Salmonella typhimurium TA98; experiment: Bacterial reverse mutation screen, strain TA98; type: cell-based; conditions: presence or absence of S-9 mix; up to 1000 μg/plate analysable
Procedure: Studies were conducted by Sequani (Ledbury, Herefordshire, UK) to assess compounds of the invention for their ability to induce mutations in two histidine dependent auxotrophic mutants of Salmonella typhimurium, strains TA98 and TA100 in vitro.
The mutation screen was conducted using the plate incorporation method and was performed in both the presence and absence of S-9 mix (a liver post-mitochondrial fraction derived from the livers of Aroclor 1254 treated rats). The bacteria were exposed to test compounds dissolved in dimethylsulphoxide, which solvent was also used as the negative control. The dose levels used were 0.32, 1.6, 8, 40, 200, 1000 or 5000 μg/plate.
Precipitation was also noted in both strains at 1000 μg/plate in the presence and absence of S-9 mix.

[3] = system: PBMCs; experiment: IL-2 and IFN gamma release in CD3/CD28 stimulated PBMC cells; type: cell-based; conditions: Homo sapiens, assay (c)
Summary of the method: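 Healthy-donor PBMCs, density-gradient isolated, stimulated on plates pre-coated with anti-CD3 (0.3 μg/mL) and anti-CD28 (3 μg/mL) antibodies, with compound, for 3 days under standard culture conditions. IC50 derived from the dose-response curve.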

[4] = system: PBMCs; experiment: LPS-induced TNFα/IL-8 release in PBMC cells; type: cell-based; conditions: Homo sapiens, assay (b)
Summary of the method: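 Healthy-donor PBMCs isolated by density gradient were pretreated with compound for 2 h, then stimulated with 1 ng/mL LPS (E. coli 0111:B4) for 24 h at 37° C., 5% CO2. IL-8 and TNFα in supernatants measured by sandwich ELISA.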

[5] = Plasma pharmacokinetics in rats, single intravenous or oral administration; type: in vivo; conditions: male, Wistar, rat; for clearance: rats, intravenous 0.25 mg/kg
Procedure: Studies were conducted by Sai Life Sciences (Hinjewadi, Pune, India) to investigate the plasma pharmacokinetics and total colon tissue distribution of compounds of the invention. In particular, pharmacokinetic studies were carried out in: • male C57BL/6 mice, following a single oral administration; and • male Wistar rats following a single intravenous or oral administration.

[6] = system: PBMCs; experiment: Cell mitosis assay in PBMCs; type: cell-based; conditions: Homo sapiens, PBMC, 5 μg/mL
Summary of the method: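 Human PBMCs from healthy donors, density-gradient isolated, stimulated with 2% PHA 48 h, then exposed 20 h to test compounds; demecolcine 0.1 μg/mL added 2 h before harvest. Fixed/permeabilised cells stained for phospho-histone H3 and propidium iodide; mitotic lymphocytes counted by flow cytometry.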

[7] = system: BDF1 mice; experiment: TNBS-induced colitis in mice; type: in vivo; conditions: conducted over 2 days; vehicle corn oil/transcutol/maisine/cremophor ELP
Procedure: Non-fasted, 10-12 week old, male BDF1 mice are dosed by oral gavage twice daily with either vehicle (5 mL/kg), reference item (Budesonide 2.5 mg/kg) or test compound (1 or 5 mg/kg) one day before (Day −1) stimulation of the inflammatory response by treatment with 2,4,6-trinitrobenzenesulphonic acid (TNBS) (15 mg/mL in 50% ethanol/50% saline). On Day 0 of the study TNBS (200 μL) is administered intra-colonically via a plastic catheter with BID dosing of the vehicle, reference or test compound continuing for 2 or 4 days. During the study, animals are weighed every day and stool observations are made and recorded as a score, based on stool consistency. At the time of sacrifice on Day 2 (or Day 4), the large intestine is removed and the length and weight recorded. Sections of the colon are taken for histopathology scoring to determine disease severity.

[8] = Hydrolytic stability study (DMSO/water 3:1, 60° C.); type: physicochemical
Procedure: Chemical stability of compounds of the invention was assessed in a mixture of DMSO and water (3:1) at a test compound concentration of 1 mg/mL
Agilent, Waters X-Select C18, 2.5 μm, 4.6×30 mm column, 4 min method, 5-95%
MeCN/water (0.1% formic acid).
Column Oven Temperature 40° C.
Sample Preparation • A 1.0 mg sample of test compound was dissolved in 750 μL of DMSO. Water (250 μL) was added slowly, ensuring no precipitation occurred.
Recording Stability • A 50 μL aliquot of the test solution was removed and analysed in duplicate by 5 μL HPLC injections. The peak area for the test compound was recorded following manual integration of the corresponding UV trace. • The test solution was heated to 60° C., with stirring, and 50 μL aliquots removed for HPLC analysis at 5 and 24 h timepoints.

[9] = read-out: IC50 Values for Inhibition of Cytokine Release PBMCs IFNγ
[10] = read-out: IC50 Values for Inhibition of Cytokine Release PBMCs IL-2
[11] = read-out: IC50 Values for Inhibition of Cytokine Release PBMCs IL-8
[12] = po, 5 mg/kg, read-out: Median plasma concentration

In the case of COCCOCCOCCOc1cc(Nc2nccc(Oc3ccc(NC(=O)Nc4cc(C(C)(C)C)cc(NS(C)(=O)=O)c4OC)c4ccccc34)n2)cc(OC)c1 [Example 4, N-(5-(tert-Butyl)-2-methoxy-3-(3-(4-((2-((3-methoxy-5-(2-(2-(2-methoxyethoxy)ethoxy)-ethoxy)phenyl)amino)pyrimidin-4-yl)oxy)naphthalen-1-yl)ureido)phenyl)methanesulfonamide], the “% Inhibition” value ([1]; 0.3 mg/kg BID oral gavage) is reported as 62%, the “% Inhibition” value ([1]; 1 mg/kg BID oral gavage) is reported as 110% and the “levels of pro-inflammatory cytokines in samples of colon tissue” value (“levels of pro-inflammatory cytokines” below) [1] is reported as “significantly reduced”. For the same compound, the “increases in revertant colonies, strain TA98” value (from here on “increases”) [2] was “no dose-related or statistically significant increases in revertant colonies”, the IC50 [3, 9] was 4.2 nM and the IC50 [3, 10] was 40.5 nM. For the same compound, the IC50 [4, 11] was 1.4 nM, the IC50 ([4]; read-out: IC50 Values for Inhibition of Cytokine Release PBMCs TNFα) was 0.7 nM and the clearance [5] was 7.9 mL/min/kg. For the same compound, the inhibition at 5 µg/mL [6] was 43%, the “activity in TNBS-induced colitis (histopathology analysis)” value (“activity … (histopathology analysis)” below) [7] was “displayed substantial activity” and the “% Parent Remaining” value ([8]; DMSO/water 3:1, 0 min) was 100%.
For C#Cc1cc(Nc2nccc(Oc3ccc(NC(=O)Nc4cc(C(C)(C)C)cc(NS(C)(=O)=O)c4OC)c4ccccc34)n2)cc(C(=O)NCCOCCOCCOC)c1 [Example 16, 3-((4-((4-(3-(5-(tert-Butyl)-2-methoxy-3-(methylsulfonamido)phenyl)ureido)naphthalen-1-yl)oxy)pyrimidin-2-yl)amino)-5-ethynyl-N-(2-(2-(2-methoxyethoxy)ethoxy)ethyl)benzamide], the “levels of pro-inflammatory cytokines” value [1] was “significantly reduced”, the “activity in adoptive transfer model (ratios of colon weight to length)” value ([1]; end of the study) was “displayed significant activity” and the “increases” value [2] was “no dose-related or statistically significant increases in revertant colonies”. For the same compound, the IC50 [3, 9] was 7.3 nM, the IC50 [3, 10] was 74 nM and the IC50 [4, 11] was 1.5 nM. The concentration at 0.25 h [5, 12] was 0 ng/mL, the concentration at 0.5 h [5, 12] was 0 ng/mL and the concentration at 1 h [5, 12] was 0 ng/mL. It also gave a concentration at 2 h [5, 12] of 0 ng/mL, a concentration at 4 h [5, 12] of 0 ng/mL and a concentration at 6 h [5, 12] of 0 ng/mL. For the same compound, the concentration at 8 h [5, 12] was 0 ng/mL, the concentration at 12 h [5, 12] was 0 ng/mL and the concentration at 24 h [5, 12] was 0 ng/mL. The clearance [5] was 4.8 mL/min/kg, the inhibition at 5 µg/mL [6] was 20.5% and the “activity … (histopathology analysis)” value [7] was “displayed substantial activity”. For the same compound, the “% Parent Remaining” value ([8]; DMSO/water 3:1, 0 min) was 100%, the “% Parent Remaining” value ([8]; DMSO/water 3:1, 60° C., 300 min) was 100% and the “% Parent Remaining” value ([8]; DMSO/water 3:1, 60° C., 1440 min) was 100%.
For COc1cc(Nc2cc(Oc3ccc(NC(=O)Nc4cc(C(C)(C)C)cc(NS(C)(=O)=O)c4OC)c4ccccc34)ccn2)cc(C(=O)NCCN2CCOCC2)c1 [Example 27, 3-((4-((4-(3-(5-(tert-Butyl)-2-methoxy-3-(methylsulfonamido)phenyl)ureido)naphthalen-1-yl)oxy)pyridin-2-yl)amino)-5-methoxy-N-(2-morpholinoethyl)benzamide], the “% Inhibition” value ([1]; 3 mg/kg BID oral gavage) was 99%, the “levels of pro-inflammatory cytokines” value [1] was “significantly reduced” and the “increases” value [2] was “no dose-related or statistically significant increases in revertant colonies”. For the same compound, the IC50 [3, 9] was 11 nM, the IC50 [3, 10] was 46.3 nM and the IC50 [4, 11] was 1.9 nM. The clearance [5] was 7.1 mL/min/kg, the inhibition at 5 µg/mL [6] was 49.8% and the “activity … (histopathology analysis)” value [7] was “displayed substantial activity”. The “% Parent Remaining” value ([8]; DMSO/water 3:1, 0 min) was 100%.

From patent US10435361B2, “Kinase inhibitors” (Topivert Pharma Limited, priority 2013, dated 2019)
